What was measured:
[1] = tested on: Brassica napus (winter rape, BRSNW); assay: Greenhouse postemergence trial BRSNW; assay type: in vivo; conditions: Brassica napus, post-emergence, read-out: % visual injury Obs
[2] = tested on: Polygonum convolvulus (wild buckwheat, POLCO); assay: Greenhouse postemergence trial POLCO; assay type: in vivo; conditions: POLCO
[3] = tested on: Cirsium arvense (Canadian thistle, CIRAR); assay: Greenhouse postemergence trial CIRAR; assay type: in vivo; conditions: CIRAR
[4] = tested on: Kochia scoparia (kochia, KCHSC); assay: Greenhouse postemergence trial KCHSC; assay type: in vivo; conditions: KCHSC
[5] = tested on: Stellaria media (chickweed, STEME); assay: Greenhouse postemergence trial STEME; assay type: in vivo
[6] = tested on: Rumex obtusifolius (broad-leaf dock, RUMOB); assay: Greenhouse postemergence trial RUMOB; assay type: in vivo; conditions: RUMOB; 140 g/ha alone
Experimental: (§1) Seeds of the desired test plant species were planted in a 90:10% v/v (volume/volume) mixture of PRO-MIX® BX (Premier Tech Horticulture, Quakertown, PA, USA) and PROFILE® GREENS GRADE™ (Profile Products LLC, Buffalo Grove, IL, USA) planting mixture, which typically has a pH of 5.2 to 6.2 and an organic matter content of at least 50 percent, in plastic pots with a surface area of 103.2 square centimeters (cm^2). […] The plants were grown for 7-36 days (d) in a greenhouse with an approximate 14-hour (h) photo-period which was maintained at about 23° C. during the day and 22° C. during the night. Nutrients and water were added on a regular basis and supplemental lighting was provided with overhead metal halide 1000-Watt lamps as necessary. The plants were employed for testing when they reached the second or third true leaf stage.
(§2) Emulsifiable concentrates of each of each pyridine carboxylate herbicide (Compound A or Compound B) were prepared at 100 grams acid equivalent per liter (g ae/L). The emulsifiable concentrates also included a safener, cloquintocet-mexyl, at 120 grams active ingredient per liter (g ai/L), unless otherwise noted below. An aliquot of each emulsifiable concentrate was placed in a 25 mL glass vial and diluted with an aqueous mixture of 1.25% (v/v) ACTIROB® B esterified rapeseed oil (Bayer Crop Science, Research Triangle Park, NC, USA) or MSO® Concentrate with LECI-TECH® methylated soybean oil (Loveland Products, Loveland, CO, USA) to obtain concentrated stock solutions at the highest application rate for each herbicide, based upon a 12 milliliter (mL) application volume at a rate of 187 liters per hectare (L/ha). The concentrated stock solutions were further diluted with an aqueous mixture of 1.25% v/v ACTIROB® B or MSO® Concentrate with LECI-TECH® to obtain stock solutions at reduced application rates for each herbicide. Spray solutions of the herbicide combinations (Compound A or Compound B plus synthetic auxin herbicide or auxin transport inhibitor) were prepared by adding weighed amounts or aliquots of the synthetic auxin herbicide or auxin transport inhibitor to the stock solutions of Compound A or Compound B to form 12-mL spray solutions in two-way combinations.
(§3) The spray solutions were applied to the plant material with an overhead Mandel track sprayer equipped with 8002E nozzles calibrated to deliver 187 L/ha over an application area of 0.503 square meters (m^2) at a spray height of 18 inches (43 centimeters (cm)) above the average plant canopy. Control plants were sprayed in the same manner with the solvent blank. All pyridine carboxylate herbicide (component a) application rates are given as “g ae/ha” and all synthetic auxin herbicide or auxin transport inhibitor (component b) application rates are given as “g ai/ha.”
(§4) The treated plants and control plants were placed in a greenhouse as described above and watered by sub-irrigation to prevent wash-off of the test compounds. After 20-22 d, the condition of the test plants as compared with that of the control plants was determined visually and scored on a scale of 0 to 100 percent where 0 corresponds to no injury and 100 corresponds to complete kill.

[7] = tested on: Abutilon theophrasti (velvetleaf, ABUTH); assay: Greenhouse postemergence trial ABUTH; assay type: in vivo; conditions: ABUTH; 140 g/ha alone
Experimental: as §1, §2, §3, §4

[8] = tested on: Glycine max (volunteer soybean, GLXMA); assay: Greenhouse postemergence trial GLXMA; assay type: in vivo; conditions: GLXMA; 140 g/ha alone
[9] = tested on: Helianthus annuus (common sunflower, HELAN); assay: Greenhouse postemergence trial HELAN; assay type: in vivo; conditions: HELAN; 140 g/ha alone
Experimental: as §1, §2, §3, §4

[10] = tested on: Ipomoea hederacea (ivyleaf morningglory, IPOHE); assay: Greenhouse postemergence trial IPOHE; assay type: in vivo; conditions: IPOHE; 140 g/ha alone
Experimental: as §1, §2, §3, §4

[11] = tested on: Alopecurus myosuroides (blackgrass, ALOMY); assay: Greenhouse postemergence trial ALOMY; assay type: in vivo; conditions: ALOMY; 140 g/ha alone
Experimental: as §1
(§5) Emulsifiable concentrates of each of each pyridine carboxylate herbicide (Compound A or Compound B) were prepared at 100 grams acid equivalent per liter (g ae/L). The emulsifiable concentrates also included a safener, cloquintocet-mexyl, at 120 grams active ingredient per liter (g ai/L), unless otherwise noted below. An aliquot of each emulsifiable concentrate was placed in a 25 mL glass vial and diluted with an aqueous mixture of 1.25% (v/v) ACTIROB® B esterified rapeseed oil (Bayer Crop Science, Research Triangle Park, NC, USA) or MSO® Concentrate with LECI-TECH® methylated soybean oil (Loveland Products, Loveland, CO, USA) to obtain concentrated stock solutions at the highest application rate for each herbicide, based upon a 12 milliliter (mL) application volume at a rate of 187 liters per hectare (L/ha). The concentrated stock solutions were further diluted with an aqueous mixture of 1.25% v/v ACTIROB® B or MSO® Concentrate with LECI-TECH® to obtain stock solutions at reduced application rates for each herbicide. Spray solutions of the herbicide combinations (Compound A or Compound B plus synthetic auxin herbicide or auxin transport inhibitor) were prepared by adding weighed amounts or aliquots of the synthetic auxin herbicide or auxin transport inhibitor to the stock solutions of Compound A or Compound B to form 12-mL spray solutions in two-way combinations. […]
as §4

[12] = tested on: Avena fatua (wild oat, AVEFA); assay: Greenhouse postemergence trial AVEFA; assay type: in vivo; conditions: AVEFA; 140 g/ha alone
Experimental: as §1, §5, §4

[13] = tested on: Lolium multiflorum (Italian ryegrass, LOLMU); assay: Greenhouse postemergence trial LOLMU; assay type: in vivo; conditions: LOLMU; 140 g/ha alone
Experimental: as §1, §2, §3, §4

[14] = tested on: Echinochloa crus-galli (barnyard grass, ECHCG); assay: Greenhouse postemergence trial ECHCG; assay type: in vivo; conditions: ECHCG; 140 g/ha alone
Experimental: as §1, §2, §3, §4

[15] = tested on: Cyperus esculentus (nutsedge, CYPES); assay: Greenhouse postemergence trial CYPES; assay type: in vivo; conditions: CYPES; 140 g/ha alone
Experimental: as §1, §5, §4

[16] = tested on: Leptochloa chinensis (Chinese sprangletop, LEFCH); assay: Greenhouse postemergence trial LEFCH; assay type: in vivo; conditions: LEFCH; 140 g/ha alone
Experimental: as §1, §5, §4

[17] = tested on: Digitaria sanguinalis (large crabgrass, DIGSA); assay: Greenhouse postemergence trial DIGSA; assay type: in vivo; conditions: DIGSA; 140 g/ha alone
Experimental: as §1, §2, §3, §4

[18] = tested on: Setaria faberi (giant foxtail, SETFA); assay: Greenhouse postemergence trial SETFA; assay type: in vivo; conditions: SETFA; 140 g/ha alone
Experimental: as §1, §2, §3, §4

[19] = tested on: Sorghum vulgare (grain sorghum, SORVU); assay: Greenhouse postemergence trial SORVU; assay type: in vivo; conditions: SORVU; 140 g/ha alone
Experimental: as §1, §5, §4

[20] = tested on: Viola tricolor (wild pansy, VIOTR); assay: Greenhouse postemergence trial VIOTR;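 further: greenhouse plants sprayed at second to third true leaf stage, injury rated visually after 20-22 d against solvent-blank sprayed controls, 0 meaning no injury and 100 complete kill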
[21] = tested on: Sinapis arvensis (wild mustard, SINAR); assay: Greenhouse postemergence trial SINAR; assay type: in vivo; conditions: Mutarda arvensis, post-emergence; SINAR; Halauxifen-methyl 3 g/ha; read-out: % visual injury Obs
Experimental: (§6) The plants were grown for 7-36 days (d) in a greenhouse with an approximate 14-hour (h) photo-period which was maintained at about 23° C. during the day and 22° C. during the night. Nutrients and water were added on a regular basis and supplemental lighting was provided with overhead metal halide 1000-Watt lamps as necessary. The plants were employed for testing when they reached the second or third true leaf stage.
(§7) The emulsifiable concentrates also included a safener, cloquintocet-mexyl, at 120 grams active ingredient per liter (g ai/L), unless otherwise noted below.
(§8) Control plants were sprayed in the same manner with the solvent blank. All pyridine carboxylate herbicide (component a) application rates are given as “g ae/ha” and all synthetic auxin herbicide or auxin transport inhibitor (component b) application rates are given as “g ai/ha.”
as §4

[22] = tested on: Salsola kali (Russian thistle, SASKR); assay: Greenhouse postemergence trial SASKR; assay type: in vivo; conditions: Salsola kali, post-emergence; SASKR; Halauxifen-methyl 3 g/ha; read-out: % visual injury Obs;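 further: greenhouse plants sprayed at second or third true leaf stage, injury rated by eye after 20-22 d against solvent-blank controls, 0 meaning no injury, 100 complete kill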
[23] = tested on: Matricaria chamomilla (wild chamomile, MATCH); assay: Greenhouse postemergence trial MATCH; assay type: in vivo; conditions: Matricaria chamomilla, post-emergence; MATCH; Halauxifen-methyl 3 g/ha; read-out: % visual injury Obs;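 further: greenhouse plants sprayed at second to third true leaf stage, injury rated by eye 20-22 d later versus solvent-blank controls on 0–100 scale, 0 no injury, 100 complete kill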
[24] = tested on: Triticum aestivum (spring wheat, TRZAS); assay type: in vivo
Experimental: as §1, §2, §3, §4

[25] = tested on: Hordeum vulgare (spring barley, HORVS); assay type: in vivo
[26] = tested on: Cyanus segetum (cornflower, CENCY); assay: Greenhouse postemergence trial CENCY; assay type: in vivo
[27] = tested on: Viola arvensis (field violet, VIOAR); assay: Greenhouse postemergence trial VIOAR; assay type: in vivo
[28] = tested on: Galium aparine (cleavers, GALAP); assay: Greenhouse postemergence trial GALAP; assay type: in vivo; conditions: c1-3 Compound A 7.5/10/15; c4 Halauxifen-methyl 6; c5-7 A 7.5/10/15 + Halauxifen-methyl 6 g/ha
[29] = tested on: Veronica hederifolia (ivyleaf speedwell, VERHE); assay: Greenhouse postemergence trial VERHE; assay type: in vivo
Experimental: as §1, §2, §3, §4

[30] = tested on: Papaver rhoeas (corn poppy, PAPRH); assay: Greenhouse postemergence trial PAPRH; assay type: in vivo
[31] = tested on: Veronica persica (bird's-eye speedwell, VERPE); assay: Greenhouse postemergence trial VERPE; assay type: in vivo
[32] = tested on: Papaver rhoeas (corn poppy), herbicide-resistant (PAPRH-R); assay: Greenhouse postemergence trial PAPRH-R; assay type: in vivo
[33] = tested on: Capsella bursa-pastoris (shepherd's purse, CAPBP); assay: Greenhouse postemergence trial CAPBP; assay type: in vivo
Experimental: as §1, §2, §3, §4

[34] = tested on: Anthemis arvensis (field chamomile, ANTAR); assay: Greenhouse postemergence trial ANTAR; assay type: in vivo
Experimental: as §1, §2, §3, §4

[35] = tested on: Matricaria discoidea (pineapple weed, MATMT); assay: Greenhouse postemergence trial MATMT; assay type: in vivo
Experimental: as §1, §2, §3, §4

[36] = tested on: Matricaria inodora (false chamomile, MATIN); assay: Greenhouse postemergence trial MATIN; assay type: in vivo
[37] = tested on: Triticum aestivum (winter wheat, TRZAW); assay: Greenhouse postemergence crop phytotoxicity TRZAW; assay type: in vivo
Experimental: as §1, §2, §3, §4

[38] = tested on: Hordeum vulgare (winter barley, HORVW); assay: Greenhouse postemergence crop phytotoxicity HORVW; assay type: in vivo
Experimental: as §1, §2, §3, §4

[39] = tested on: Lamium purpureum (purple deadnettle, LAMPU); assay: Greenhouse postemergence trial LAMPU
Experimental: as §6, §7, §8, §4

[40] = c1-3 Compound A 7.5/10/15, c4 Halauxifen-methyl 6, c5-7 A 7.5/10/15 + Halauxifen-methyl 6 g/ha

O=C(O)c1ccccc1C(=O)Nc1cccc2ccccc12 [Naptalam]
35%: % visual injury, Obs [15]
0%: plant injury at 140 g/ha [1] | % visual injury, Obs ([2]; 140 g/ha alone) | % visual injury, Obs ([3]; 140 g/ha alone) | % visual injury, Obs ([4]; 140 g/ha alone) | % visual injury, Obs ([5]; STEME, 140 g/ha alone) | % visual injury, Obs [6] | % visual injury, Obs [7] | % visual injury, Obs [9] | % visual injury, Obs [10] | % visual injury, Obs [11] | % visual injury, Obs [12] | % visual injury, Obs [13] | % visual injury, Obs [14] | % visual injury, Obs [16] | % visual injury, Obs [17] | % visual injury, Obs [18] | % visual injury, Obs [19] | % visual injury, Obs ([20]; VIOTR, 140 g/ha alone)
13%: % visual injury, Obs [8]

COC(=O)c1nc(-c2ccc(Cl)c(OC)c2F)cc(N)c1Cl [Halauxifen-methyl, halauxifen-methyl, reference compound]
70%: pest or weed control at 3 g/ha [21] | pest or weed control at 3 g/ha ([30]; Papaver rhoeas, post-emergence, PAPRH, Halauxifen-methyl 3 g/ha, read-out: % visual injury Obs) | % visual injury [30, 40] | % visual injury [33, 40]
90%: pest or weed control at 3 g/ha ([26]; Centaurea cyanus, post-emergence, CENCY, Halauxifen-methyl 3 g/ha, read-out: % visual injury Obs)
10%: pest or weed control at 3 g/ha [23] | pest or weed control at 3 g/ha ([27]; Viola arvensis, post-emergence, VIOAR, Halauxifen-methyl 3 g/ha, read-out: % visual injury Obs) | pest or weed control at 3 g/ha ([29]; Veronica hederifolia, post-emergence, VERHE, Halauxifen-methyl 3 g/ha, read-out: % visual injury Obs) | % visual injury [29, 40] | % visual injury [31, 40] | % visual injury [36, 40] | % visual injury [20, 40]
97%: % visual injury [26, 40] | pest or weed control at 3 g/ha ([39]; Lamium purpureum, post-emergence, read-out: % visual injury Obs)
60%: % visual injury [32, 40] | pest or weed control at 3 g/ha ([20]; Viola tricolor, post-emergence, read-out: % visual injury Obs)
5%: % visual injury [27, 40]
85%: % visual injury [39, 40]
80%: pest or weed control at 3 g/ha ([2]; Fallopia convolvulus, post-emergence, Halauxifen-methyl 3 g/ha, read-out: % visual injury Obs)
30%: plant injury at 3 g/ha ([1]; BRSNW, Halauxifen-methyl 3 g/ha) | pest or weed control at 3 g/ha ([5]; Stellaria media, post-emergence, STEME, Halauxifen-methyl 3 g/ha, read-out: % visual injury Obs)
20%: pest or weed control at 3 g/ha ([31]; Veronica persica, post-emergence, VERVE, Halauxifen-methyl 3 g/ha, read-out: % visual injury Obs)
95%: % visual injury [28]
50%: pest or weed control at 3 g/ha [22] | pest or weed control at 3 g/ha ([4]; Bassia scoparia, post-emergence, Halauxifen-methyl 3 g/ha, read-out: % visual injury Obs) | pest or weed control at 3 g/ha ([34]; Anthemis arvensis, post-emergence, ANTAR, Halauxifen-methyl 3 g/ha, read-out: % visual injury Obs)
75%: pest or weed control at 3 g/ha ([33]; Capsella bursa-pastoris, post-emergence, CAPBP, Halauxifen-methyl 3 g/ha, read-out: % visual injury Obs)
40%: % visual injury [34, 40]
0%: % visual injury Obs ([24]; TRZAS, Halauxifen-methyl 3 g/ha) | % visual injury (crop phytotoxicity) [24, 40] | % visual injury Obs ([25]; HORVS, Halauxifen-methyl 3 g/ha) | % visual injury (crop phytotoxicity) [25, 40] | pest or weed control at 3 g/ha ([35]; Matricaria discoidea, post-emergence, MATMT, Halauxifen-methyl 3 g/ha, read-out: % visual injury Obs) | pest or weed control at 3 g/ha ([36]; Tripleurospermum inodorum, post-emergence, MATIN, Halauxifen-methyl 3 g/ha, read-out: % visual injury Obs) | % visual injury Obs ([37]; TRZAW, Halauxifen-methyl 3 g/ha) | % visual injury (crop phytotoxicity) [37, 40] | % visual injury Obs ([38]; HORVW, Halauxifen-methyl 3 g/ha) | % visual injury (crop phytotoxicity) [38, 40]
65%: pest or weed control at 3 g/ha ([3]; Cirsium arvense, post-emergence, Halauxifen-methyl 3 g/ha, read-out: % visual injury Obs) | pest or weed control at 3 g/ha ([32]; Papaver rhoeas, post-emergence, PAPRH-R, Halauxifen-methyl 3 g/ha, read-out: % visual injury Obs) | % visual injury [5, 40] | % visual injury [35, 40]

Source: patent US12568967B2, “Compositions comprising pyridine carboxylate herbicides with synthetic auxin herbicides or auxin transport inhibitors” (priority 2018, dated 2026)
